The source of these data is patent publication US20240247048A1 (EMORY UNIVERSITY, priority 2021, published 2024).

In assay [1] the test system is wild type and VPAC2 KO Panc02 cells. Nature of the assay: MTT viability of wild type and VPAC2 KO Panc02 cells. The class given is cell-based, mouse. To be noted: 3 uM for 72 hours; FIG. 24f. As for the experimental part:
(FIG. 24A) Percentage viability of murine (MT5, KPC.Luc, Panc02) and human (Capan02, BxPC3) PDAC cell lines cultured in the presence of different concentrations ranging from 0-5 μM of ANT008 for 72 hours is plotted. Confirmation of CRISPR-Cas9 KO of VIPR2 encoding VPAC2 receptor via (FIG. 24B) western blot; (FIG. 24C) RT-PCR using primers targeting exon 9-12 downstream of targeted site and (FIG. 24D) Sanger Sequencing showing the validation of in-del mutation in exon 2. In vitro MTT assay showing (FIG. 24E) Proliferation of WT and KO cells over 72 hours; (FIG. 24F) Percent viability of wild type (WT) and VPAC2 KO (KO) Panc02 cells treated with ANT008 and ANT308 at 3 μM for 72 hours. (FIG. 24G) Tumor growth curve of WT versus KO Panc02 cells in C57BL/6 mice following subcutaneous tumor implantation. Values represent median tumor volume±95% confidence interval. (FIG. 24H) Kaplan-Meier survival plots corresponding to results in FIG. 24G. Median survival time for WT is 21 days and 28 days for VPAC2 KO. Error bars represent mean and standard deviation. *p<0.05, **p<0.01.
Cell viability assay. […] Cell viability was assessed using cell proliferation kit I from Roche (Basel, Switzerland), following the manufacturer's instructions. […] This was followed by incubation with solubilization buffer overnight and reading the absorbance at 570 nm. […]

Assay [2] concerns phospho-CREB downstream of VPAC1/2 receptor. The assay can be described thus: phosphorylation of CREB in activated human T cells. To be noted: 6 h, 3 uM, compared with control scrambled peptide; FIG. 17e. The class given is cell-based. As for the experimental part: (§1) (FIG. 17A) Representative western blot and (FIG. 17B) quantified expression levels of VPAC1 and VPAC2; and (FIG. 17C) PD-1 and CTLA-4 in lysates of healthy human T cells expanded with plate bound human anti-CD3 antibodies for 0, 3, 6, 12, 24, 48 and 72 hours. Lower molecular weight band of 25kD shown for VPAC2-specific expression as confirmed from our VPAC2 KO model. Percentage of (FIG. 17D) CD69 expression at 24 h post activation (FIG. 17E) phosphorylation of CREB (phospho-CREB) downstream of VPAC1/2 receptor at 6 h and in CD4+ and CD8+ T cells normalized to levels in control with no peptide. PDAC patient peripheral blood T cells were expanded for 9 days with plate bound human anti-CD3 antibodies+/−ANT008 and the (FIG. 17F) percentage of Tregs was quantified using the (FIG. 17G) gating strategy shown. Percentage of PD1+, Tim-3+, Lag3+, PD1+Tim-3+, PD1+Lag3+ and PD1+Tim-3+Lag-3+(triple positive) in (FIG. 17H) CD4+ and (FIG. 17I) CD8+ subsets is shown. Statistical differences in FIGS. 17D and 17E were calculated via repeated measures ANOVA followed by Dunnett's post-test where each sample in the treatment group was compared to the matched sample in the control group (scrambled treated). Statistical differences in FIGS. 17F, 17H, and 17I were calculated via paired student T-test. Error bars show mean±SEM. *p<0.50, **p<0.01 and ***p<0.001. […]

Assay [3] concerns PDAC patient T cells. Nature of the assay: ex vivo 9-day expansion of PDAC patient peripheral blood T cells. The class given is cell-based, human. As for the experimental part: as §1, with “Percentage of PD1+, Tim-3+, Lag3+, PD1+Tim-3+, PD1+Lag3+ and PD1+Tim-3+Lag-3+(triple positive) in (FIG. 17H) CD4+ and (FIG. 17I) CD8+ subsets is shown.” left out, “T-test.” for “T-test. Error bars show mean±SEM. *p<0.50, **p<0.01 and ***p<0.001.”
Human T cell activation and expansion. […] Cells were counted using Trypan blue dye and phenotyped via flow cytometry on day 9. […]

In the case of KPRRPYTSDYTRLRKQMAVKKYLNLILN [ANT308], in assay [1], the “in vitro growth of VPAC2 knockout or wild-type Panc02 cells” value is “did not inhibit”. Further, the “activation-induced phosphorylation of CREB” value in assay [2] is “more potently inhibited”.

For the sequence KPRRPYTDNYTRLRKQMAVKKYLNLILN [ANT008], the “T cells with an exhausted phenotype (co-expressing PD1 and Tim-3 or Lag-3)” value in assay [3] (CD4+ and CD8+ subsets, 9 days, FIG. 17h, 17i) was “significantly decreased”. In addition, the “proportion of human Tregs (CD4+ CD25+ FoxP3+)” value in assay [3] (after 9 days of T cell expansion, FIG. 17f) is reported as “significantly decreased”.
